Measured values as given in patent publication US10829484B2, “Compounds and methods for kinase modulation, and indications therefor” (Plexxikon Inc., priority 2015, dated 2020).
Substitutions are numbered along the chain they refer to.

Key:
BaF3-FLT3-ITD-F691L = biological target: T1, BaF3-FLT3-ITD-F691L (Homo sapiens, UniProt P36888, INS600HVDFREYEYD/F691L, cells depend on it); experiment: CTB viability assay CS0047, BaF3-FLT3-ITD-F691L; format: cell-based, murine; details: BaF3-FLT3-ITD-F691L cells, CellTiter Blue viability, 72 hours; read-out: Cell Assay: CS0047:BaF3-FLT3-ITD-F691L CTB:IC50
T1 sequence (P36888 with tags, fused parts or gaps INS600HVDFREYEYD/F691L): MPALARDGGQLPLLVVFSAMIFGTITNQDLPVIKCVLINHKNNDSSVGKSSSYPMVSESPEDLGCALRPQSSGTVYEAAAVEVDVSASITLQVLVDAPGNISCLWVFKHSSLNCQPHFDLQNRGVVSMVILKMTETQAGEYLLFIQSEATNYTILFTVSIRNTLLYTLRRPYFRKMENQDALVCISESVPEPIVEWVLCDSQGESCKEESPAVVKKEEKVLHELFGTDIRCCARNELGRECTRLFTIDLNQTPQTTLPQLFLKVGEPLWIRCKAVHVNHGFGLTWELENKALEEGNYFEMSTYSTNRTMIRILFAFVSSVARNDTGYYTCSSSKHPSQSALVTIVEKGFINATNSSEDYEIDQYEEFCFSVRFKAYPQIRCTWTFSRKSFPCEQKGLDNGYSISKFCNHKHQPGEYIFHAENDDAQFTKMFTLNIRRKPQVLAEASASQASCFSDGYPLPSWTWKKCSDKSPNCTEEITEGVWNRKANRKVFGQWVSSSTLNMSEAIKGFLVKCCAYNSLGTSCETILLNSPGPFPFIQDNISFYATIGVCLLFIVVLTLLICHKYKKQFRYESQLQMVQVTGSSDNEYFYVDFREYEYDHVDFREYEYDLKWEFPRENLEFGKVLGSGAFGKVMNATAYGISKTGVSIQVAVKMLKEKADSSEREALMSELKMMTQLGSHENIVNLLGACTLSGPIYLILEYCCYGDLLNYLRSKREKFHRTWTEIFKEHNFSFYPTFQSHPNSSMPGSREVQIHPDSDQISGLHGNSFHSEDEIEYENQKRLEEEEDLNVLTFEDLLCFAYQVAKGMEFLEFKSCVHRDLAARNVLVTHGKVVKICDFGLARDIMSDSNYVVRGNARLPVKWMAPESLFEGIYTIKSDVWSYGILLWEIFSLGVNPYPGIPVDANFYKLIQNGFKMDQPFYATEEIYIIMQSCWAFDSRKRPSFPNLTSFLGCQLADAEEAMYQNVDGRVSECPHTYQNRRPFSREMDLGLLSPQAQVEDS
Source text: (§1) Gene constructs containing the human FLT3 sequences FLT3-ITD, FLT3-ITD-F691L, FLT3-ITD-D835V and FLT3-D835V were synthesized by reverse translation of the human protein sequences, with codons optimized for mammalian expression. Sequence of the internal tandem duplication (ITD) was based on the MV4-11 ITD sequence. Synthetic DNA constructs were cloned into the pMSCV puro retroviral vector (Clontech) and transfected into the EcoPack2-293 packaging cell line (Clontech) to generate retroviruses that contain the different FLT3 constructs. Viruses were transduced into the IL-3-dependent, murine […] cell line, Ba/F3, and selected for puromycin resistance and IL-3 independence. All cell lines were cloned by limiting dilution and clones were used for all subsequent cell assays. Overexpression of the FLT3 mutants in the Ba/F3 cells results in constitutive phosphorylation of the exogenous FLT3 protein, which is required for IL-3 independence.
(§2) Cell lines were serum starved overnight in media containing 0.5% FBS, plated at 15,000 cells/well in 96-well white-walled tissue culture plates, and 3-fold serial dilutions of test compounds of Formula I were added for 72 hours at 37° C. CellTiter Blue (CTB, Promega) was added and incubated for an additional 3 hours at 37° C. Fluorescence was read at 560 nm excitation, 590 nm emission. Wells with CTB+media only were used for background subtraction, and the fluorescence of compound-treated cells was normalized to the fluorescence of DMSO-treated cells. IC50s were determined using Igor Pro software. All compounds are assayed in duplicate cell plates.

BaF3-FLT3-ITD-D835V = biological target: T2, BaF3-FLT3-ITD-D835V (Homo sapiens, UniProt P36888, INS600HVDFREYEYD/D835V, cells depend on it); experiment: CTB viability assay CS0048, BaF3-FLT3-ITD-D835V; format: cell-based, murine; details: BaF3-FLT3-ITD-D835V cells, CellTiter Blue viability, 72 hours; read-out: Cell Assay: CS0048: BaF3-FLT3-ITD-D835V CTB:IC50
T2 sequence (P36888 with tags, fused parts or gaps INS600HVDFREYEYD/D835V): T1 sequence (P36888 with tags, fused parts or gaps INS600HVDFREYEYD/F691L) with L701F, D845V
Source text: as §1, §2

Compound | GI50 (BaF3-FLT3-ITD-F691L) [nM] | GI50 (BaF3-FLT3-ITD-D835V) [nM]
Cc1nc(Nc2cnn(C3CC3)c2C)ncc1-c1ccc(CC(=O)Nc2cc(C3(C(F)(F)F)CC3)on2)c(F)c1 [P-129, 2-[4-[2-[(1-cyclopropyl-5-methylpyrazol-4-yl)amino]-4-methyl-pyrimidin-5-yl]-2-fluorophenyl]-N-[5-[1-(trifluoromethyl)cyclopropyl]isoxazol-3-yl]acetamide] | 10 to 50 | 10 to 50
CCn1cncc1Nc1ncc(-c2ccc(CC(=O)Nc3cc(C4(C(F)(F)F)CC4)on3)c(F)c2)cn1 [P-147, 2-[4-[2-[(3-ethylimidazol-4-yl)amino]pyrimidin-5-yl]-2-fluoro-phenyl]-N-[5-[1-(trifluoromethyl)cyclopropyl]isoxazol-3-yl]acetamide] | 10 to 50 | 50 to 100
Cn1cc(Nc2ncc(-c3ccc(CC(=O)Nc4cc(C5(C(F)(F)F)CC5)on4)c(F)c3)c(C(F)(F)F)n2)cn1 [P-027, 2-[2-fluoro-4-[2-[(1-methylpyrazol-4-yl)amino]-4-(trifluoromethyl)pyrimidin-5-yl]phenyl]-N-[5-[1-(trifluoromethyl)cyclopropyl]isoxazol-3-yl]acetamide] | 50 to 100 | 10 to 50
COc1cnccc1Nc1ncc(-c2ccc(CC(=O)Nc3cc(C4(C(F)(F)F)CC4)on3)c(F)c2)cn1 [P-105, 2-[2-fluoro-4-[2-[(3-methoxy-4-pyridyl)amino]pyrimidin-5-yl]phenyl]-N-[5-[1-(trifluoromethyl)cyclopropyl]isoxazol-3-yl]acetamide] | 10 to 50 | 50 to 100
O=C(Cc1ccc(-c2cnc(Nc3cnccn3)nc2)cc1F)Nc1cc(C2(C(F)(F)F)CC2)on1 [P-086, 2-[2-fluoro-4-[2-(pyrazin-2-ylamino)pyrimidin-5-yl]phenyl]-N-[5-[1-(trifluoromethyl)cyclopropyl]isoxazol-3-yl]acetamide] | 10 to 50 | 10 to 50
COCCn1ncc(Nc2ncc(-c3ccc(CC(=O)Nc4cc(C5(C(F)(F)F)CC5)on4)c(F)c3)cn2)c1C1CC1 [P-204, 2-[4-[2-[[5-cyclopropyl-1-(2-methoxyethyl)pyrazol-4-yl]amino]pyrimidin-5-yl]-2-fluoro-phenyl]-N-[5-[1-(trifluoromethyl)cyclopropyl]isoxazol-3-yl]acetamide] | 10 to 50 | 10 to 50
Cc1nn(C)cc1Nc1ncc(-c2ccc(CC(=O)Nc3cc(C4(C(F)(F)F)CC4)on3)c(F)c2)c(N)n1 [P-149, 2-[4-[4-amino-2-[(1,3-dimethylpyrazol-4-yl)amino]pyrimidin-5-yl]-2-fluorophenyl]-N-[5-[1-(trifluoromethyl)cyclopropyl]isoxazol-3-yl]acetamide] | 10 to 50 | 10 to 50
COc1nn(C(F)F)cc1Nc1ncc(-c2ccc(CC(=O)Nc3cc(C4(C(F)(F)F)CC4)on3)c(F)c2)c(C)n1 [P-144, 2-[4-[2-[[1-(difluoromethyl)-3-methoxypyrazol-4-yl]amino]-4-methyl-pyrimidin-5-yl]-2-fluorophenyl]-N-[5-[1-(trifluoromethyl)cyclopropyl]isoxazol-3-yl]acetamide] | 10 to 50 | 50 to 100
Cc1nn(C)cc1Nc1ncc(-c2ccc(CC(=O)Nc3cc(C4(C(F)(F)F)CC4)on3)c(F)c2)cc1C#N [P-156, 2-[4-[5-cyano-6-[(1,3-dimethylpyrazol-4-yl)amino]-3-pyridyl]-2-fluorophenyl]-N-[5-[1-(trifluoromethyl)cyclopropyl]isoxazol-3-yl]acetamide] | 10 to 50 | 10 to 50
